From BindingDB's records for doi:10.1074/jbc.M703586200 (University of Minnesota, 2007)

What was measured:
Tissue factor [1] = target: T1, Tissue factor (Homo sapiens, UniProt P13726); assay: Inhibition of TNF-alpha-induced tissue factor activity in HUVEC preincubated for 4 hrs assessed after 4 hrs of TNFalpha challenge by one stage clotting assay
Tissue factor [2] = target: T1, Tissue factor; assay: Inhibition of LPS-induced tissue factor activity in HUVEC preincubated for 4 hrs assessed after 4 hrs of LPS challenge by one stage clotting assay

T1 sequence (P13726 whole entry): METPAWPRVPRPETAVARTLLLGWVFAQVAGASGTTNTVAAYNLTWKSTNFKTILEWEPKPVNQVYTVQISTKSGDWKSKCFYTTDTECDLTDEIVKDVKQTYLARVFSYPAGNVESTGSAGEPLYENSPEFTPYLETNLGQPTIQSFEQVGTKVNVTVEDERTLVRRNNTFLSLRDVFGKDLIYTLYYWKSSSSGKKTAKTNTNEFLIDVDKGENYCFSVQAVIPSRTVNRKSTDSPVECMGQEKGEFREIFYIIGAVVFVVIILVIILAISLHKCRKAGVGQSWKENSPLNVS

SMILES	IC50 (Tissue factor [1])	IC50 (Tissue factor [2])
CC(=CC(C)C=CC(=O)NO)C(=O)c1ccc(N(C)C)cc1 (centres undefined)	0.03 µM	–
CCCC(=O)O	2000 µM	1000 µM
CCC(=O)CCCCC[C@@H]1NC(=O)[C@H]2CCCCN2C(=O)[C@H]([C@@H](C)CC)NC(=O)[C@H](Cc2cn(OC)c3ccccc23)NC1=O [(6S,9S,12S,14aR)-6-((S)-sec-Butyl)-9-(1-methoxy-1H-indol-3-ylmethyl)-12-(6-oxo-octyl)-decahydro-4a,7,10,13-tetraaza-benzocyclododecene-5,8,11,14-tetraone]	0.2 µM	0.15 µM
CCCC(CCC)C(=O)O [Valproinsaeure]	2000 µM	1500 µM
Nc1ccccc1NC(=O)c1ccc(CNC(=O)OCc2cccnc2)cc1 [benzamide-type inhibitor, 3]	10 µM	6 µM
